Columns and labels:
[1] = target: T1, UGT1A1 (Rattus norvegicus, UniProt Q64550); experiment: Chemical inhibition assay of PND metabolism in RLM, UGT1A1 inhibitor; assay type: in vitro ADME; details: liver microsomes, pH 7.4, probe PND (2 µM), overall metabolism of PND, bilirubin 100 μM
T1 construct: rat liver microsomes (RLMs) were prepared with 6 Sprague-Dawley males (6–8 weeks); from tissue; host or cells: liver microsomes of male Sprague-Dawley rats, prepared in house
T1 sequence (Q64550 30-535): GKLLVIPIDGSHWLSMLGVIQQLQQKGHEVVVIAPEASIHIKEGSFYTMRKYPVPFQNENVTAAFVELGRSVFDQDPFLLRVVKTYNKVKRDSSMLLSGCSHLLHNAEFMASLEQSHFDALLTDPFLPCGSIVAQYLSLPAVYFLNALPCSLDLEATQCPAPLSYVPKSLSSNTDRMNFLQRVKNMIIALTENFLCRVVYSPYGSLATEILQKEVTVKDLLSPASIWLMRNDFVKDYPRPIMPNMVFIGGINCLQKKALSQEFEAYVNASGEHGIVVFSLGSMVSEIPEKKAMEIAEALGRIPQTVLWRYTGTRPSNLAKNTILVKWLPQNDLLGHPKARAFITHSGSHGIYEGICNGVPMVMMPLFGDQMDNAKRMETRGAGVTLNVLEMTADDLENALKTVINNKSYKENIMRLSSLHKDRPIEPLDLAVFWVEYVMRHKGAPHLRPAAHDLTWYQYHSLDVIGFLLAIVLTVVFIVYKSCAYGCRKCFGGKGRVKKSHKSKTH

[2] = test system: CYP2E1; experiment: Chemical inhibition assay of PND metabolism in LMs, CYP2E1 inhibitor; assay type: in vitro ADME, rat, mouse and human; details: disulfiram 50 μM (CYP2E1 inhibitor), PND 2 µM, LMs 0.5 mg protein/mL
[3] = test system: CYP3A4; experiment: in vitro; details: male, Sprague-Dawley (rat), Kunming (mouse), human, liver microsomes, probe PND (2 µM)
[4] = target: T2, UGT1A9 (Homo sapiens, UniProt O60656); experiment: Chemical inhibition assay of PND metabolism in HLM, UGT1A9 inhibitor; assay type: in vitro ADME; details: liver microsomes, probe PND (2 µM), overall metabolism of PND, niflumic acid 5 μM
T2 construct: Male Mongolia human microsomes (HLM), prepared from 30 male donors (19–78 years old); tissue RILD Liver Disease Research Co., Ltd. (Shanghai, China); host or cells: pooled human liver microsomes, 30 male donors
T2 sequence (O60656 26-530): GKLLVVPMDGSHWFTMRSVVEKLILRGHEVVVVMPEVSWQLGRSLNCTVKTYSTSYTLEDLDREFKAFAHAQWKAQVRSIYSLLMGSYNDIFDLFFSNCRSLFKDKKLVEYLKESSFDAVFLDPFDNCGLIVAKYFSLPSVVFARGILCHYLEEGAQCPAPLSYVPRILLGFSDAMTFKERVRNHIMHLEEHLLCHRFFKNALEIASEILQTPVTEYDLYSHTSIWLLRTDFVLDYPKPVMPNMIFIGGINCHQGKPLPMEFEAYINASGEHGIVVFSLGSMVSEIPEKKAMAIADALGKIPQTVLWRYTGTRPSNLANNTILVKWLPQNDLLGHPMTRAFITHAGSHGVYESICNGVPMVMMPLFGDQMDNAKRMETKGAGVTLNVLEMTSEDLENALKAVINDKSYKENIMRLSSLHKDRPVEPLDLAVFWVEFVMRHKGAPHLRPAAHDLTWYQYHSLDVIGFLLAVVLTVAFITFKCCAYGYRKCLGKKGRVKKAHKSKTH

[5] = test system: CYP2C9 (CYP2C6); experiment: in vitro; details: male, Sprague-Dawley (rat), Kunming (mouse), human, liver microsomes, probe PND (2 µM)
[6] = target: T3, UGT1A6 (Homo sapiens, UniProt P19224); experiment: Chemical inhibition assay of PND metabolism in human LMs, UGT1A6 inhibitor; assay type: in vitro ADME; details: liver microsomes, probe PND (2 µM), overall metabolism of PND, troglitazone 250 μM
T3 construct: Male Mongolia human microsomes (HLM), prepared from 30 male donors (19–78 years old); tissue RILD Liver Disease Research Co., Ltd. (Shanghai, China); host or cells: pooled human liver microsomes, 30 male donors
T3 sequence (P19224 27-532): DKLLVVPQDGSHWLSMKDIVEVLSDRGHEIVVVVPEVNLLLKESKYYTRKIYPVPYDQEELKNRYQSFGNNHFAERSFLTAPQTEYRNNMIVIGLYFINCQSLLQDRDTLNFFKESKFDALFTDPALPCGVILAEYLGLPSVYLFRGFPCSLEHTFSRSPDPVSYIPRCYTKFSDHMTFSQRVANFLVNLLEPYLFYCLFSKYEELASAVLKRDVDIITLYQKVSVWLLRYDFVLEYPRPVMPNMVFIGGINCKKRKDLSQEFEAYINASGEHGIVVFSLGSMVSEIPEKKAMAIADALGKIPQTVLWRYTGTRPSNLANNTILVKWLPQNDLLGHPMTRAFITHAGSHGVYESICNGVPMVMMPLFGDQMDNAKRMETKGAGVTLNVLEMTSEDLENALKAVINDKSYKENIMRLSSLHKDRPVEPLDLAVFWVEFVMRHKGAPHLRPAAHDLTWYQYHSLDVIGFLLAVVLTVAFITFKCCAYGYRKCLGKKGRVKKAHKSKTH

[7] = target: T4, UGT1A6 (Rattus norvegicus, UniProt P08430); experiment: Chemical inhibition assay of PND metabolism in RLM, UGT1A6 inhibitor; assay type: in vitro ADME; details: liver microsomes, pH 7.4, probe PND (2 µM), overall metabolism of PND, troglitazone 250 μM
T4 construct: rat liver microsomes (RLMs) were prepared with 6 Sprague-Dawley males (6–8 weeks); from tissue; host or cells: liver microsomes of male Sprague-Dawley rats, prepared in house
T4 sequence (P08430 26-529): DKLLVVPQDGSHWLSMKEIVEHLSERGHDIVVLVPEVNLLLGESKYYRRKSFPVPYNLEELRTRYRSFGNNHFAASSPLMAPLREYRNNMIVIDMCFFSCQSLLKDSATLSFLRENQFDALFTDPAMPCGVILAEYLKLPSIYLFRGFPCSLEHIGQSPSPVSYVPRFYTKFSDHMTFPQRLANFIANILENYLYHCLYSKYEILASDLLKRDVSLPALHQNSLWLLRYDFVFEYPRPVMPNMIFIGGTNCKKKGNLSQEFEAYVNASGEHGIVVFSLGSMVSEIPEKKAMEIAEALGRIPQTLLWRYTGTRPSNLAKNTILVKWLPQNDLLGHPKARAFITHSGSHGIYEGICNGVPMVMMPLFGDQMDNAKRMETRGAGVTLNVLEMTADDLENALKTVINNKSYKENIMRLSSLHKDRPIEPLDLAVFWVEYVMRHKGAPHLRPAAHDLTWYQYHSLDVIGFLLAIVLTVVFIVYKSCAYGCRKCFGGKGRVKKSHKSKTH

[8] = target: T5, UGT1A6 (Mus musculus, UniProt Q64435); experiment: Chemical inhibition assay of PND metabolism in MLM, UGT1A6 inhibitor; assay type: in vitro ADME; details: liver microsomes, pH 7.4, probe PND (2 µM), overall metabolism of PND, troglitazone 250 μM
T5 construct: Mouse liver microsomes (MLM) were prepared with 10 Kunming males (6–8 weeks); from tissue; host or cells: liver microsomes of male Kunming mice, prepared in house
T5 sequence (Q64435 27-531): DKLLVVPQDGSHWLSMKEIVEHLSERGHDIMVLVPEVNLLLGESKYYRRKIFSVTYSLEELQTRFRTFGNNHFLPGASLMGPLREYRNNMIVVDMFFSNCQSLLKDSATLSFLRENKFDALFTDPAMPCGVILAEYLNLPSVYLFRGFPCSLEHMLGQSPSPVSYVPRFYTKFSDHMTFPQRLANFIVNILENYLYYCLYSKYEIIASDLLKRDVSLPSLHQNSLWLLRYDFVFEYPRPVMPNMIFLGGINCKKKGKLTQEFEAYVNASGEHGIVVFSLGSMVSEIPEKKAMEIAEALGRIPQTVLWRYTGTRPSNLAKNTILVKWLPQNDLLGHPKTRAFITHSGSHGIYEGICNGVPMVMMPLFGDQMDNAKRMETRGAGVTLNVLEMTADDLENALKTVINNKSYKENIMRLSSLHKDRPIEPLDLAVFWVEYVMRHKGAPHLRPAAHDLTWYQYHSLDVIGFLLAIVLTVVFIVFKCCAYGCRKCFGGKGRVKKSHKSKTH

With `C=CC1=C(C)/C(=C/c2[nH]c(Cc3[nH]c(/C=C4\NC(=O)C(C)=C4C=C)c(C)c3CCC(=O)O)c(CCC(=O)O)c2C)NC1=O` [bilirubin] the inhibition at 90 min, 100 μM [1] was 64.3%.

`CCN(CC)C(=S)SSC(=S)N(CC)CC` [disulfiram] was tested, and the “Effect on metabolism of PND in LMs” value [2] was “decreased significantly”.

`CC(=O)N1CCN(c2ccc(OCC3COC(Cn4ccnc4)(c4ccc(Cl)cc4Cl)O3)cc2)CC1` (centres unmarked) [ketoconazole] gave an inhibition at 2 µM [3] of 19 to 48%.

In the case of `O=C(O)c1cccnc1Nc1cccc(C(F)(F)F)c1` [niflumic acid], the inhibition at 90 min, 5 μM [4] is reported as 36.7%.

In the case of `Nc1ccc(S(=O)(=O)Nc2ccnn2-c2ccccc2)cc1` [sulphafenazole], the inhibition at 100 µM [5] is reported as 19 to 48%.

Molecule `Cc1c(C)c2c(c(C)c1O)CCC(C)(COc1ccc(CC3SC(=O)NC3=O)cc1)O2` (centres unmarked) [troglitazone] has an inhibition at 90 min, 250 μM [6] of 17.3%, an inhibition at 90 min, 250 μM [7] of 68.6% and an inhibition at 90 min, 250 μM [8] of 61.8%.

Source: paper PMC9920254 (Molecules, 2023)
